The compounds below were run on HBV (assay: HBV replication inhibition assay (BDNA assay) in HepG2.2.15 cells). Settings: HBV replication assay (BDNA assay), HepG2.2.15 cells; read-out: DNA EC50.
Assay type: cell-based
In short: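 Supernatant encapsidated HBV DNA was measured by bDNA after DNase digestion and proteinase K release. Stably HBV-integrated HepG2.2.15 cells had two 3-day compound exposures (0.5% DMSO). Signals were background-subtracted and normalized to DMSO wells, and EC50 was obtained by four-parameter fit.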

Row | Compound | EC50
1 | CCN1OC(CO)Cn2nc3c(c2C1=O)CN(C(=O)Nc1ccc(F)c(Cl)c1)CC3 (single isomer, unassigned) [Compound 060_E2, (R*)—N-(3-chloro-4-fluorophenyl)-2-ethyl-4-(hydroxymethyl)-1-oxo-1,4,5,8,9,11-hexahydropyrido[4′,3′:3,4]pyrazolo[5,1-d][1,2,5]oxadiazepine-10(2H)-carboxamide] | 1 to 100 nM
2 | C[C@@H]1Cc2nn3c(c2CN1C(=O)Nc1ccnc(Br)c1F)C(=O)N(C)OC(CN(C)C)C3 (stereo in doubt) [Compound 095_D2, (4R*,9R)—N-(2-bromo-3-fluoropyridin-4-yl)-4-((dimethylamino)methyl)-2,9-dimethyl-1-oxo-1,4,5,8,9,11-hexahydropyrido[4′,3′:3,4]pyrazolo[5,1-d][1,2,5]oxadiazepine-10(2H)-carboxamide] | 100 to 500 nM
3 | C[C@@H]1Cc2nn3c(c2CN1C(=O)Nc1ccc(F)c(C#N)c1)C(=O)N(C)OC(C(=O)N(C)CC(F)F)C3 (stereo in doubt) [Compound 155_D1, (4S*,9R)—N10-(3-cyano-4-fluorophenyl)-N4-(2,2-difluoroethyl)-N4,2,9-trimethyl-1-oxo-1,4,5,8,9,11-hexahydropyrido[4′,3′:3,4]pyrazolo[5,1-d][1,2,5]oxadiazepine-4,10(2H)-dicarboxamide] | 500 to 1000 nM
4 | CNC(=O)C1Cn2nc3c(c2C(=O)N(C)O1)CN(C(=O)Nc1cc(Cl)c(F)cc1F)[C@H](C)C3 (stereo in doubt) [Compound 111_D1, (4S*,9R)—N10-(5-chloro-2,4-difluorophenyl)-N4,2,9-trimethyl-1-oxo-1,4,5,8,9,11-hexahydropyrido[4′,3′:3,4]pyrazolo[5,1-d][1,2,5]oxadiazepine-4,10(2H)-dicarboxamide] | > 1000 nM
5 | C[C@@H]1Cc2nn3c(c2CN1C(=O)Nc1ccc(F)c(C#N)c1)C(=O)N(C)OC(CN(C)C)C3 (stereo in doubt) [Compound 096_D1, (4S*,9R)—N-(3-cyano-4-fluorophenyl)-4-((dimethylamino)methyl)-2,9-dimethyl-1-oxo-1,4,5,8,9,11-hexahydropyrido[4′,3′:3,4]pyrazolo[5,1-d][1,2,5]oxadiazepine-10(2H)-carboxamide] | 100 to 500 nM
6 | C[C@@H]1Cc2nn3c(c2CN1C(=O)Nc1cc(Cl)c(F)cc1F)C(=O)N(C)OC(C(=O)N(C)CC(F)F)C3 (stereo in doubt) [Compound 154_D2, (4R*,9R)—N10-(5-chloro-2,4-difluorophenyl)-N4-(2,2-difluoroethyl)-N4,2,9-trimethyl-1-oxo-1,4,5,8,9,11-hexahydropyrido[4′,3′:3,4]pyrazolo[5,1-d][1,2,5]oxadiazepine-4,10(2H)-dicarboxamide] | 1 to 100 nM

Same assay, conditions: Hepatitis B virus, HepG2.2.15, HBV replication assay (BDNA assay), HepG2.2.15 cells; read-out: DNA EC50

Row | Compound | EC50
7 | CN1OC(CO)Cn2nc3c(c2C1=O)CN(C(=O)Nc1cc(Cl)ccc1F)CC3 (single isomer, unassigned) [Compound 139_E1, (S*)—N-(5-chloro-2-fluorophenyl)-4-(hydroxymethyl)-2-methyl-1-oxo-1,4,5,8,9,11-hexahydropyrido[4′,3′:3,4]pyrazolo[5,1-d][1,2,5]oxadiazepine-10(2H)-carboxamide] | 1 to 100 nM
8 | CC(=O)OCC1Cn2nc3c(c2C(=O)N(C)O1)CN(C(=O)Nc1ccc(F)c(Cl)c1)CC3 (stereo not drawn) [Compound 052, (10-((3-chloro-4-fluorophenyl)carbamoyl)-2-methyl-1-oxo-1,2,4,5,8,9,10,11-octahydropyrido[4′,3′:3,4]pyrazolo[5,1-d][1,2,5]oxadiazepin-4-yl)methyl acetate] | 1 to 100 nM
9 | CC(=O)NCC1Cn2nc3c(c2C(=O)N(C)O1)CN(C(=O)Nc1cc(Br)c(F)cc1F)CC3 (single isomer, unassigned) [Compound 174_E1, (S*)-4-(acetamidomethyl)-N-(5-bromo-2,4-difluorophenyl)-2-methyl-1-oxo-1,4,5,8,9,11-hexahydropyrido[4′,3′:3,4]pyrazolo[5,1-d][1,2,5]oxadiazepine-10(2H)-carboxamide] | 1 to 100 nM
10 | CN(CC(F)F)C(=O)C1Cn2nc3c(c2C(=O)N(C)O1)CN(C(=O)Nc1ccc(F)c(C#N)c1)CC3 (stereo not drawn) [Compound 160, N10-(3-cyano-4-fluorophenyl)-N4-(2,2-difluoroethyl)-N4,2-dimethyl-1-oxo-1,4,5,8,9,11-hexahydropyrido[4′,3′:3,4]pyrazolo[5,1-d][1,2,5]oxadiazepine-4,10(2H)-dicarboxamide] | 1 to 100 nM
11 | CCC(=O)NCC1Cn2nc3c(c2C(=O)N(C)O1)CN(C(=O)Nc1ccc(F)c(Cl)c1)CC3 (stereo not drawn) [Compound 197, N-(3-chloro-4-fluorophenyl)-2-methyl-1-oxo-4-(propionamidomethyl)-1,4,5,8,9,11-hexahydropyrido[4′,3′:3,4]pyrazolo[5,1-d][1,2,5]oxadiazepine-10(2H)-carboxamide] | 1 to 100 nM
12 | CN1OC(CNC(=O)C(C)(C)C)Cn2nc3c(c2C1=O)CN(C(=O)Nc1ccc(F)c(Cl)c1)CC3 (stereo not drawn) [Compound 201, N-(3-chloro-4-fluorophenyl)-2-methyl-1-oxo-4-(pivalamidomethyl)-1,4,5,8,9,11-hexahydropyrido[4′,3′:3,4]pyrazolo[5,1-d][1,2,5]oxadiazepine-10(2H)-carboxamide] | 1 to 100 nM
13 | C[C@@H]1Cc2nn3c(c2CN1C(=O)Nc1ccc(F)c(C#N)c1)C(=O)N(C)OCC3 [Compound 079, (R)—N-(3-cyano-4-fluorophenyl)-2,9-dimethyl-1-oxo-1,4,5,8,9,11-hexahydropyrido[4′,3′:3,4]pyrazolo[5,1-d][1,2,5]oxadiazepine-10(2H)-carboxamide] | 1 to 100 nM
14 | CN1OC(CO)Cn2nc3c(c2C1=O)CN(C(=O)Nc1cc(Br)cc(F)c1F)CC3 (single isomer, unassigned) [Compound 140_E1, (S*)—N-(5-bromo-2,3-difluorophenyl)-4-(hydroxymethyl)-2-methyl-1-oxo-1,4,5,8,9,11-hexahydropyrido[4′,3′:3,4]pyrazolo[5,1-d][1,2,5]oxadiazepine-10(2H)-carboxamide] | 1 to 100 nM
15 | CN1OC(CO)Cn2nc3c(c2C1=O)CN(C(=O)Nc1cc(Br)ncc1F)CC3 (single isomer, unassigned) [Compound 150_E1, (S*)—N-(2-bromo-5-fluoropyridin-4-yl)-4-(hydroxymethyl)-2-methyl-1-oxo-1,4,5,8,9,11-hexahydropyrido[4′,3′:3,4]pyrazolo[5,1-d][1,2,5]oxadiazepine-10(2H)-carboxamide] | 1 to 100 nM
16 | CN1OC(CO)Cn2nc3c(c2C1=O)CN(C(=O)Nc1cc(Br)ccc1F)CC3 (single isomer, unassigned) [Compound 141_E1, (S*)—N-(5-bromo-2-fluorophenyl)-4-(hydroxymethyl)-2-methyl-1-oxo-1,4,5,8,9,11-hexahydropyrido[4′,3′:3,4]pyrazolo[5,1-d][1,2,5]oxadiazepine-10(2H)-carboxamide] | 1 to 100 nM
17 | Cc1cc(NC(=O)N2Cc3c(nn4c3C(=O)N(C)OC(CN(C)C)C4)C[C@H]2C)ccc1F (stereo in doubt) [Compound 097_D1, (4 S*,9R)-4-((dimethylamino)methyl)-N-(4-fluoro-3-methylphenyl)-2,9-dimethyl-1-oxo-1,4,5,8,9,11-hexahydropyrido[4′,3′:3,4]pyrazolo[5,1-d][1,2,5]oxadiazepine-10(2H)-carboxamide] | 1 to 100 nM
18 | CNC(=O)C1Cn2nc3c(c2C(=O)N(C)O1)CN(C(=O)Nc1ccc(F)c(C#N)c1F)[C@H](C)C3 (stereo in doubt) [Compound 156_D2, (4R*,9R)—N10-(3-cyano-2,4-difluorophenyl)-N4,2,9-trimethyl-1-oxo-1,4,5,8,9,11-hexahydropyrido[4′,3′:3,4]pyrazolo[5,1-d][1,2,5]oxadiazepine-4,10(2H)-dicarboxamide] | 1 to 100 nM
19 | CN1OC(CNCC(F)F)Cn2nc3c(c2C1=O)CN(C(=O)Nc1ccc(F)c(C#N)c1)CC3 (single isomer, unassigned) [Compound 187_E1, (S*)—N-(3-cyano-4-fluorophenyl)-4-(((2,2-difluoroethyl)amino)methyl)-2-methyl-1-oxo-1,4,5,8,9,11-hexahydropyrido[4′,3′:3,4]pyrazolo[5,1-d][1,2,5]oxadiazepine-10(2H)-carboxamide] | 1 to 100 nM
20 | Cc1c(F)c(F)cc(NC(=O)N2CCc3nn4c(c3C2)C(=O)N(C)OC(CO)C4)c1F (single isomer, unassigned) [Compound 144_E1, (S*)-4-(hydroxymethyl)-2-methyl-1-oxo-N-(2,4,5-trifluoro-3-methylphenyl)-1,4,5,8,9,11-hexahydropyrido[4′,3′:3,4]pyrazolo[5,1-d][1,2,5]oxadiazepine-10(2H)-carboxamide] | 1 to 100 nM
21 | C[C@@H]1Cc2nn3c(c2CN1C(=O)Nc1ccc(F)c(Br)c1)C(=O)N(C)OC(CN)C3 (stereo in doubt) [Compound 117_D1, (4S*,9R)-4-(aminomethyl)-N-(3-bromo-4-fluorophenyl)-2,9-dimethyl-1-oxo-1,4,5,8,9,11-hexahydropyrido[4′,3′:3,4]pyrazolo[5,1-d][1,2,5]oxadiazepine-10(2H)-carboxamide] | 1 to 100 nM
22 | CNC(=O)C1Cn2nc3c(c2C(=O)N(C)O1)CN(C(=O)Nc1cc(Cl)c(F)cc1F)CC3 (stereo not drawn) [Compound 119, N10-(5-chloro-2,4-difluorophenyl)-N4,2-dimethyl-1-oxo-1,4,5,8,9,11-hexahydropyrido[4′,3′:3,4]pyrazolo[5,1-d][1,2,5]oxadiazepine-4,10(2H)-dicarboxamide] | 100 to 500 nM
23 | CC(=O)NCC1Cn2nc3c(c2C(=O)N(C)O1)CN(C(=O)Nc1ccc(F)c(Cl)c1F)CC3 (single isomer, unassigned) [Compound 169_E1, (S*)-4-(acetamidomethyl)-N-(3-chloro-2,4-difluorophenyl)-2-methyl-1-oxo-1,4,5,8,9,11-hexahydropyrido[4′,3′:3,4]pyrazolo[5,1-d][1,2,5]oxadiazepine-10(2H)-carboxamide] | 1 to 100 nM
24 | CN(C)C(=O)OCC1Cn2nc3c(c2C(=O)N(C)O1)CN(C(=O)Nc1ccc(F)c(Cl)c1)CC3 (stereo not drawn) [Compound 059, [10-[(3-chloro-4-fluoro-phenyl)carbamoyl]-2-methyl-1-oxo-5,8,9,11-tetrahydro-4H-pyrido[2,3]pyrazolo[2,4-d][1,2,5]oxadiazepin-4-yl]methyl N,N-dimethylcarbamate] | 1 to 100 nM

From patent publication US10987359B2, “Oxadiazepinone derivatives and methods of treating hepatitis B infections” (priority 2016, dated 2021)
